According to patent US20250041237A1, “HEMOGLOBIN-BASED NANOPARTICLES” (priority 2023, published 2025):

What was measured:
[1] = system: murine or human neutrophils; experiment: Transwell chemotaxis assay; format: cell-based; conditions: lipid radical scavenger added
Excerpt: Transwell chemotaxis assay. Cytoplasmic membranes of S. aureus Newman, MRSA, or MDRSA were isolated from lysostaphin-induced protoplasts as previously described. Briefly, the bacterial cells were washed and resuspended in buffered hypertonic sucrose, followed by treatment with lysostaphin to digest the cell walls. The resulting protoplasts were recovered and lysed in the dilute buffer to extract cytoplasmic membranes. To evaluate the chemotaxis ability of human or murine neutrophils towards S. aureus membranes, a 96-transwell plate with 3 μm pores was used (Corning, USA). The bottom wells were loaded with 200 μL of the bacterial cell membrane in chemotaxis buffer (49% HBSS, 0.5% human serum albumin, 4 mM L-glutamine, and 49% RPMI 1640), while the top wells contained 2×10^5 neutrophils in 75 μL chemotaxis buffer. The plate was incubated in the dark at 37° C. with 5% CO2 for 1.5 h. Neutrophils that had migrated into the bottom wells were lysed with elastase assay buffer to release the neutrophil elastase. The activity of elastase was measured using the chromogenic substrate, N-methoxysuccinyl-Ala-Ala-Pro-Val-p-nitroanilide, at a final concentration of 1 mM. The absorbance at 405 nm was measured using a GloMax-Multi microplate multimode reader (Promega, WI, USA) to determine the number of migrated neutrophils.

MRSA = experiment: Mouse MRSA peritonitis model study; format: in vivo, ICR mice; conditions: treated i.v. 6 h after MRSA i.p. inoculation; monitored two weeks

| Compound | Hb-Naf@RBCM-induced neutrophil recruitment [1] | survival (MRSA) [%] |
| --- | --- | --- |
| Clc1cccc(CN=C2Nc3ccccc3NC23CCNCC3)c1 [Liproxstatin-1] | significantly inhibited | – |
| CN(C/C=C/c1ccccc1)Cc1cccc2ccccc12 [naftifine] | – | 12.5 |
